Marks after values point to notes of the source that are not given here.
Experiments:
Type in all cases: cell-based, Klebsiella pneumoniae
[1] = system: K. pneumoniae RamR^mut (K124*stop); assay: MIC of antibiotics with and without EPI (REMA), RamR mutant; conditions: for Minimum Inhibitory Concentration: K. pneumoniae RamR^mut; for MIC: Klebsiella pneumoniae, read-out: Minimum Inhibitory Concentration
Procedure: (§1) MIC experiments were carried out according to the CLSI guidelines (CLSI [2023]). Overnight cultures were diluted to an OD600 = 0.001 in CAMHB followed by addition of efflux pump inhibitors (EPIs) at a final concentration of 100 µM. […] Plates were incubated at 37 °C for up to 20 h. Bacterial viability was evaluated using the resazurin microtitre assay (REMA) and measured by fluorescence using a Tecan Spaert multimode plate reader (Ex: 530 nm Em: 590 nm). MICs were defined as the concentration that prevented 90% of resazurin turnover compared to the non-treated bacteria.
(§2) Mutations in acrB or ramR identified in the BDM88855.HCl (1’) resistant mutant (a.k.a., KPJC11) were introduced individually into K. pneumoniae ATCC 43816 chromosome by allelic exchange (Cianfanelli et al, [2020]). Briefly, 1-kb PCR products centred around each point mutation were generated by amplifying acrB with primers RH1251 ([…][…]) and RH1252 ([…][…]) or ramR with primers RH1249 ([…][…]) and RH1250 ([…][…]) from KPJC11 genomic DNA. PCR fragments were cloned into pFOK (Cianfanelli et al, [2020]) using NEB-building kit ([New England Biolabs]) to generate pEP1533 and pEP1534. Correct plasmids were confirmed by sequencing and introduced into K. pneumoniae ATCC43816 WT via conjugation with the MFDpir+ E. coli donor strain. Exconjugants were selected on kanamycin (50 mg/L) plates at 37 °C and plasmid chromosomal integration was checked by PCR. […] The next day, cultures were diluted and plated onto LB agar. Isolated colonies were then patched onto LB plates with or without kanamycin (50 mg/L) and Km^S candidates were evaluated for correct allelic exchange via acrB or ramR sequencing and then WGS to confirm no additional mutations were introduced.

K. pneumoniae AcrB^V448E = assay: MIC of antibiotics with and without EPI (REMA), AcrB V448E mutant; conditions: for Minimum Inhibitory Concentration: K. pneumoniae AcrB^V448E; for MIC: Klebsiella pneumoniae, read-out: Minimum Inhibitory Concentration
Procedure: as §1, §2

[2] = system: K. pneumoniae ATCC 43816 (WT); assay: MIC of antibiotics with and without EPI (REMA), WT strain; conditions: for Minimum Inhibitory Concentration / MIC: K. pneumoniae WT; for MIC: Klebsiella pneumoniae, ATCC43816, No EPI, read-out: Minimum Inhibitory Concentration
Procedure: Overnight cultures were diluted to an OD600 = 0.001 in CAMHB followed by addition of efflux pump inhibitors (EPIs) at a final concentration of 100 µM. […] Plates were incubated at 37 °C for up to 20 h. […] MICs were defined as the concentration that prevented 90% of resazurin turnover compared to the non-treated bacteria.

[3] = system: K. pneumoniae AcrB^V448E RamR^mut; assay: MIC of antibiotics with and without EPI (REMA), double mutant; conditions: for Minimum Inhibitory Concentration: K. pneumoniae AcrB^V448E RamR^mut; for MIC: Klebsiella pneumoniae, read-out: Minimum Inhibitory Concentration
Procedure: as §1

SMILES	Minimum Inhibitory Concentration ([1]; + 100 µM 1')	Minimum Inhibitory Concentration ([1]; + 100 µM 5)	Minimum Inhibitory Concentration ([1]; + 100 µM PAβN)	MIC [1]	Minimum Inhibitory Concentration (K. pneumoniae AcrB^V448E; + 100 µM 1')	Minimum Inhibitory Concentration (K. pneumoniae AcrB^V448E; + 100 µM 5)	Minimum Inhibitory Concentration (K. pneumoniae AcrB^V448E; + 100 µM PAβN)	MIC (K. pneumoniae AcrB^V448E)	Minimum Inhibitory Concentration ([2]; + 100 µM 1')	Minimum Inhibitory Concentration ([2]; + 100 µM 5)	Minimum Inhibitory Concentration ([2]; + 100 µM PAβN)	MIC [2]	boosting of antibiotic activity in combination with EPIs ([2]; Table 2)	Minimum Inhibitory Concentration ([3]; + 100 µM 1')	Minimum Inhibitory Concentration ([3]; + 100 µM 5)	Minimum Inhibitory Concentration ([3]; + 100 µM PAβN)	MIC [3]	Minimum Inhibitory Concentration ([3]; No EPI)	Minimum Inhibitory Concentration ([1]; No EPI)	Minimum Inhibitory Concentration (K. pneumoniae AcrB^V448E; No EPI)
CC[C@H]1OC(=O)[C@H](C)[C@@H](O[C@H]2C[C@@](C)(OC)[C@@H](O)[C@H](C)O2)[C@H](C)[C@@H](O[C@@H]2O[C@H](C)C[C@H](N(C)C)[C@H]2O)[C@](C)(O)C[C@@H](C)CN(C)[C@H](C)[C@@H](O)[C@]1(C)O [Azithromycin]	11^# mg/L	3.3^# mg/L	0.7^# mg/L	37 mg/L	6.7^# mg/L	11^# mg/L	0.5^# mg/L	21 mg/L	2.7^# mg/L	2.0^# mg/L	0.5^# mg/L	16 mg/L	at least 8 fold	37 mg/L	21 mg/L	0.7^# mg/L	21 mg/L			
C[C@H]1[C@H](NC(=O)/C(=N\OC(C)(C)C(=O)O)c2csc(N)n2)C(=O)N1S(=O)(=O)O [Aztreonam]	0.32 mg/L	0.27 mg/L	0.53 mg/L	0.43 mg/L	0.16 mg/L	0.21 mg/L	0.32 mg/L	0.13 mg/L	0.11 mg/L	0.11 mg/L	0.16 mg/L	0.07 mg/L		0.53 mg/L	0.75 mg/L	0.53 mg/L	0.53 mg/L			
CO/N=C(\C(=O)N[C@@H]1C(=O)N2C(C(=O)[O-])=C(C[N+]3(C)CCCC3)CS[C@H]12)c1csc(N)n1 [Cefepime]	0.64 mg/L	0.11^# mg/L	0.64 mg/L	0.53 mg/L	0.05 mg/L	0.04 mg/L	0.64 mg/L	0.06 mg/L	0.05 mg/L	0.05 mg/L	0.21 mg/L	0.09 mg/L		0.85 mg/L	0.96 mg/L	0.85 mg/L	0.75 mg/L			
CC(C)(O/N=C(\C(=O)N[C@@H]1C(=O)N2C(C(=O)[O-])=C(C[n+]3ccccc3)CS[C@H]12)c1csc(N)n1)C(=O)O [Ceftazidime]	1.1 mg/L	0.64^# mg/L	0.64^# mg/L	1.3 mg/L	0.37^# mg/L	0.32^# mg/L	0.53 mg/L	0.85 mg/L	0.32 mg/L	0.53 mg/L	0.32 mg/L	0.43 mg/L		1.28 mg/L	1.28 mg/L	1.28 mg/L		1.28 mg/L		
O=C(N[C@H](CO)[C@H](O)c1ccc([N+](=O)[O-])cc1)C(Cl)Cl [Chloramphenicol]	2.7^# mg/L	4.7^# mg/L	2.7^# mg/L	53 mg/L	2.0^# mg/L	4.7 mg/L	2.0^# mg/L	6.7 mg/L	1.0^# mg/L	1.0^# mg/L	1.7^# mg/L	4 mg/L		128 mg/L	128 mg/L	5.3^# mg/L		128 mg/L		
CC(=O)O[C@H]1C[C@@]2(C)[C@@H](C[C@@H](O)[C@H]3[C@@]4(C)CC[C@@H](O)[C@@H](C)[C@@H]4CC[C@@]32C)/C1=C(\CCC=C(C)C)C(=O)O [Fusidic acid]	128 mg/L	128 mg/L	85 mg/L		128 mg/L	128 mg/L	32^# mg/L		85 mg/L	128 mg/L	21^# mg/L	128 mg/L		128 mg/L	128 mg/L	107 mg/L		128 mg/L	128 mg/L	128 mg/L
CC(=O)NC[C@H]1CN(c2ccc(N3CCOCC3)c(F)c2)C(=O)O1 [Linezolid]	128 mg/L	107 mg/L	128 mg/L		85 mg/L	128 mg/L	64^# mg/L		13^# mg/L	27^# mg/L	64^# mg/L	128 mg/L		128 mg/L	128 mg/L	128 mg/L		128 mg/L	128 mg/L	128 mg/L
Cc1onc(-c2ccccc2)c1C(=O)N[C@@H]1C(=O)N2[C@@H]1SC(C)(C)[C@@H]2C(=O)O [Oxacillin]									32^# mg/L	43^# mg/L										
